# Source: US20050074879A1, “Antisense oligonucleotide modulation of STAT3 expression” (priority 2000, published 2005)
# Oligonucleotides are written 5' to 3', each unit as a sugar letter and its base; * is a phosphorothioate linkage, no mark a phosphodiester; rarer units and linkages stand in square brackets, end groups in braces. Plain capitals give the bases only. e = 2'-O-(2-methoxyethyl) (MOE); [5mC] = 5-methylcytosine; d = 2'-deoxy (DNA)
# Experiments:
# Format in all cases: cell-based
# Human STAT3 mRNA [1] = experiment: Human STAT3 mRNA dose response in T-24 cells, real-time PCR with PPS 199 (Table 18); conditions: 16 hours, − decrease, + increase relative to untreated control
# From the text: The transitional cell bladder carcinoma cell line T-24 was obtained from the American Type Culture Collection (ATCC) (Manassas, Va.). T-24 cells were routinely cultured in complete McCoy's 5A basal media (Gibco/Life Technologies, Gaithersburg, Md.) supplemented with 10% fetal calf serum (Gibco/Life Technologies, Gaithersburg, Md.), penicillin 100 units per mL, and streptomycin 100 micrograms per mL (Gibco/Life Technologies, Gaithersburg, Md.). Cells were routinely passaged by trypsinization and dilution when they reached 90% confluence. Cells were seeded into 96-well plates (Falcon-Primaria #3872) at a density of 7000 cells/well for use in RT-PCR analysis.
# Control oligonucleotides used were ISIS 129695 ([…], SEQ ID NO: 391), ISIS 129694 ([…] SEQ ID NO: 392), ISIS 129690 ([…] SEQ ID NO: 393), ISIS 129686 ([…] SEQ ID NO: 394), ISIS 116847 ([…], SEQ ID NO: 395) and ISIS 113529 ([…] SEQ ID NO: 396). These are universal scrambled control oligonucleotides.
# (§1) T-24 cells were treated with 18.75, 37.5, 75, or 150 nM of oligonucleotide mixed with 3 ug/mL LIPOFECTIN per 100 nM oligonucleotide as described by other examples herein. Untreated cells served as controls. Following 16 hours of treatment, RNA was prepared from cells for subsequent real-time PCR analysis.
# Human STAT3 mRNA expression levels were quantitated by real-time PCR using primer probe set PPS 199 and gene target quantities were normalized using Ribogreen as described in other examples herein. A “−” or “+” designation indicates a decrease or increase of STAT 3 mRNA expression, respectively, relative to untreated control cells.
# Human STAT3 mRNA [2] = experiment: Inhibition of human STAT3 mRNA levels in A549 cells, 75 nM, real-time PCR (Table 13); conditions: 75 nM oligonucleotide with LIPOFECTIN, real-time PCR PPS 199, percent inhibition relative to untreated control cells, average of 2 experiments
# In short: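 A549 cells at 65–75% confluency were transfected in duplicate with 75 nM oligonucleotide plus […] Lipofectin for 4–7 h at 37° C and harvested 16–24 h later. STAT3 mRNA was quantified by real-time RT-PCR with primer-probe set PPS 199 and normalized to RiboGreen total RNA. Inhibition is relative to untreated controls.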
# Human STAT3 mRNA [3] = experiment: Human STAT3 mRNA dose response in T-24 cells, real-time PCR with PPS 2033 (Table 19); conditions: 16 hours, − decrease, + increase relative to untreated control
# Experimental: The dose-response was repeated in T-24 cells and gene target quantities were measured using a different primer-probe set, called PPS 2033 herein. PPS 2033 comprises probes and primers to human STAT3 were designed to hybridize to a human STAT3 sequence, using published sequence information (incorporated herein as SEQ ID NO: XXX). For PPS 2033 the PCR primers were: forward primer: GAGGCCCGCCCAACA (SEQ ID NO: 397) reverse primer: […] (SEQ ID NO: 398) and the PCR probe was: FAM-CTGCCTAGATCGGC-TAMRA (SEQ ID NO: 399) where FAM is the fluorescent reporter dye and TAMRA is the quencher dye. Gene target quantities obtained by real time RT-PCR are normalized by quantifying total RNA using RiboGreen™ (Molecular Probes, Inc. Eugene, Oreg.). Control oligonucleotides used were ISIS 129695 (SEQ ID NO: 391), ISIS 129694 (SEQ ID NO: 392), ISIS 129690 (SEQ ID NO: 393), ISIS 129686 (SEQ ID NO: 394), ISIS 116847 (SEQ ID NO: 395) and ISIS 113529 (SEQ ID NO: 396).
# as §1
# Human STAT3 mRNA expression levels were quantitated by real-time PCR using primer probe set PPS 2033 and gene target quantities were normalized using Ribogreen as described in other examples herein. A “−” or “+” designation indicates a decrease or increase of STAT 3 mRNA expression, respectively, relative to untreated control cells.
Substance,Percent change of STAT3 expression using PPS 199 (Human STAT3 mRNA [1]; 18.75 nM oligonucleotide),Percent change of STAT3 expression using PPS 199 (Human STAT3 mRNA [1]; 37.5 nM oligonucleotide),Percent change of STAT3 expression using PPS 199 (Human STAT3 mRNA [1]; 75 nM oligonucleotide),Percent change of STAT3 expression using PPS 199 (Human STAT3 mRNA [1]; 150 nM oligonucleotide),% Inhib (inhibition of human STAT 3 mRNA levels) (Human STAT3 mRNA [2]),Percent change of STAT3 expression using PPS 2033 (Human STAT3 mRNA [3]; 18.75 nM oligonucleotide),Percent change of STAT3 expression using PPS 2033 (Human STAT3 mRNA [3]; 37.5 nM oligonucleotide),Percent change of STAT3 expression using PPS 2033 (Human STAT3 mRNA [3]; 75 nM oligonucleotide),Percent change of STAT3 expression using PPS 2033 (Human STAT3 mRNA [3]; 150 nM oligonucleotide)
337276 (antisense e[5mC]*eT*eG*eG*eA*dG*dA*dT*dT*d[5mC]*dT*d[5mC]*dT*dA*d[5mC]*e[5mC]*eA*e[5mC]*eT*eT) [compound 337276],−40%,−61%,−76%,−81%,91%,−34%,−58%,−75%,−81%
337284 (antisense e[5mC]*eT*e[5mC]*e[5mC]*eT*dT*dG*dA*d[5mC]*dT*d[5mC]*dT*dT*dG*dA*eG*eG*eG*eT*eT) [compound 337284],−49%,−64%,−69%,−72%,91%,−49%,−62%,−66%,−68%
337293 (antisense e[5mC]*eA*eG*e[5mC]*e[5mC]*dA*dG*d[5mC]*dT*d[5mC]*d[5mC]*dT*d[5mC]*dG*dT*e[5mC]*e[5mC]*eG*eT*eG) [compound 337293],−26%,−49%,−66%,−79%,92%,−26%,−49%,−67%,−79%
337303 (antisense eA*eG*e[5mC]*eT*eG*dA*dT*dA*dA*dT*dT*d[5mC]*dA*dA*d[5mC]*eT*e[5mC]*eA*eG*eG) [compound 337303],−44%,−61%,−69%,−72%,85%,−47%,−59%,−69%,−71%
337344 (antisense eA*eT*e[5mC]*e[5mC]*eA*dT*dG*dA*dT*d[5mC]*dT*dT*dA*dT*dA*eG*e[5mC]*e[5mC]*e[5mC]*eA) [compound 337344],−27%,−47%,−63%,−77%,90%,−17%,−37%,−60%,−76%
337384 (antisense eA*eT*eA*e[5mC]*eA*dG*dA*dA*dA*dG*dG*d[5mC]*dT*dA*dT*eG*e[5mC]*eT*eG*eA) [compound 337384],−40%,−55%,−71%,−80%,89%,−41%,−59%,−69%,−80%
